Tests used:
[1] = tested on: antibodies in sera from SARS patients (sera 1a, 1b, 2, 6, 37, 62, London, SARS-yellow, SARS-green); type: binding, human; design: Binding of serum 6 to linear peptides of protein X1 of SARS-CoV Urbani / Binding of serum 37 to linear peptides of protein X1 of SARS-CoV Urbani / Binding of serum 6 to looped/cyclic peptide (PEPSCAN-ELISA) / Binding of serum 37 to looped/cyclic peptide (PEPSCAN-ELISA) / Binding of serum 37 to looped/cyclic peptides of protein X1 of SARS-CoV Urbani / Binding of serum 6 to linear peptides of protein X2 / Binding of serum 37 to linear peptides of protein X2 / Binding of serum 37 to looped/cyclic peptides of protein X2 of SARS-CoV Urbani / Binding of serum 6 to linear peptides of protein M of SARS-CoV Urbani / Binding of serum 37 to linear peptides of protein M of SARS-CoV Urbani / Binding of serum 6 to looped/cyclic peptides of protein M of SARS-CoV Urbani / Binding of serum 37 to looped/cyclic peptides of protein M of SARS-CoV Urbani / Binding of serum 6 to linear peptides of protein X3 of SARS-CoV Urbani / Binding of serum 37 to linear peptides of protein X3 of SARS-CoV Urbani / Binding of serum 37 to looped/cyclic peptides of protein X3 of SARS-CoV Urbani / Binding of serum 6 to linear peptides of protein X4 of SARS-CoV Urbani / Binding of serum 37 to linear peptides of protein X4 of SARS-CoV Urbani / Binding of serum 37 to looped/cyclic peptides of protein X4 of SARS-CoV Urbani / Binding of serum 6 to linear peptides of protein X5 of SARS-CoV Urbani / Binding of serum 37 to linear peptides of protein X5 of SARS-CoV Urbani / Binding of serum 37 to looped/cyclic peptides of protein X5 of SARS-CoV Urbani / Binding of serum 6 to linear peptides of protein N of SARS-CoV Urbani / Binding of serum 37 to linear peptides of protein N of SARS-CoV Urbani / Binding of serum 6 to linear peptide (PEPSCAN-ELISA) / Binding of serum 1a to looped/cyclic peptides of protein N of SARS-CoV Urbani / Binding of serum 1b to looped/cyclic peptides of protein N of SARS-CoV Urbani / Binding of serum 2 to looped/cyclic peptides of protein N of SARS-CoV Urbani / Binding of serum 6 to looped/cyclic peptides of protein N of SARS-CoV Urbani / Binding of serum 37 to looped/cyclic peptides of protein N of SARS-CoV Urbani / Binding of serum 62 to looped/cyclic peptides of protein N of SARS-CoV Urbani / Binding of serum London to looped/cyclic peptides of protein N of SARS-CoV Urbani / Binding of serum SARS-green to looped/cyclic peptides of protein N of SARS-CoV Urbani: unit not given here
[2] = tested on: control sera (pooled serum of ten healthy LUMC hospital workers; commercial negative donor pooled serum from the Dutch bloodbank); type: binding, human; design: Binding of Control serum LUMC to linear peptides / Binding of Control serum Blood-bank to linear peptides / Binding of Control serum LUMC to looped peptides / Binding of Control Serum Blood-Bank to Looped peptides / Binding of Control serum LUMC to linear peptides of the protein M of SARS-CoV Urbani / Binding of Control serum Blood-bank to linear peptides of the protein M of SARS-CoV Urbani / Binding of Control serum LUMC to looped peptides of the protein M of SARS-CoV Urbani / Binding of Control Serum Blood-Bank to Looped peptides of the protein M of SARS-CoV Urbani: unit not given here
[3] = tested on: rabbit serum obtained by immunizing a rabbit with the SARS-CoV strain Frankfurt 1; type: binding; design: Binding of a rabbit serum to linear peptides / Binding of a rabbit serum to looped peptides / Rabbit serum linear peptides / Rabbit serum looped peptides / Binding of a rabbit serum to linear peptides of protein N of SARS-CoV Urbani (Rabbit serum linear peptides) / Binding of a rabbit serum to looped/cyclic peptides of protein N of SARS-CoV Urbani (Rabbit serum looped peptides): unit not given here
[4] = tested on: recombinant human anti-SARS-CoV antibody 03-018; type: binding; design: Binding of antibody 03-018 to linear peptides of the N protein of SARS-CoV Urbani / Binding of antibody 03-018 to looped/cyclic peptides of the N protein of SARS-CoV Urbani: unit not given here

Row | Sequence | Binding of serum 1a to linear peptides of protein N of SARS-CoV Urbani [1] | Binding of serum 1a to looped/cyclic peptides of protein N of SARS-CoV Urbani [1] | Binding of serum 1b to linear peptides of protein N of SARS-CoV Urbani [1] | Binding of serum 1b to looped/cyclic peptides of protein N of SARS-CoV Urbani [1] | Binding of serum 2 to linear peptides of protein N of SARS-CoV Urbani [1] | Binding of serum 2 to looped/cyclic peptides of protein N of SARS-CoV Urbani [1] | Binding of serum 6 to looped/cyclic peptides of protein N of SARS-CoV Urbani [1] | Binding of serum 37 to looped/cyclic peptides of protein N of SARS-CoV Urbani [1] | Binding of serum 62 to looped/cyclic peptides of protein N of SARS-CoV Urbani [1] | Binding of serum London to looped/cyclic peptides of protein N of SARS-CoV Urbani [1] | Binding of serum SARS-green to looped/cyclic peptides of protein N of SARS-CoV Urbani [1] | Binding of serum SARS-yellow to looped/cyclic peptides of protein N of SARS-CoV Urbani [1] | Binding of Control Serum Blood-Bank to Looped peptides [2] | Binding of Control serum Blood-bank to linear peptides [2] | Binding of Control serum LUMC to linear peptides [2] | Binding of Control serum LUMC to looped peptides [2] | Binding of a rabbit serum to linear peptides of protein N of SARS-CoV Urbani (Rabbit serum linear peptides) [3] | Binding of a rabbit serum to looped/cyclic peptides of protein N of SARS-CoV Urbani (Rabbit serum looped peptides) [3] | Binding of antibody 03-018 to linear peptides of the N protein of SARS-CoV Urbani [4] | Binding of antibody 03-018 to looped/cyclic peptides of the N protein of SARS-CoV Urbani [4] | further results
1 | GRNGARPKQRRPQGL | 0.2 | 0.2 | 0.1 | 0.1 | 0.2 | 0.2 | 0.2 | 0.4 | 0.3 | 0.3 | 0.2 | 0.3 | 0.5 | 0.7 | 0.6 | 0.5 | 0.2 | 0.7 | 0.1 | 0.2 | Binding of serum 6 to linear peptides of protein N of SARS-CoV Urbani [1]: 0.2; Binding of serum 37 to linear peptides of protein N of SARS-CoV Urbani [1]: 0.7; Binding of serum 62 to linear peptides of protein N of SARS-CoV Urbani [1]: 0.6; Binding of serum London to linear peptides of protein N of SARS-CoV Urbani [1]: 0.4; Binding of serum SARS-green to linear peptides of protein N of SARS-CoV Urbani [1]: 0.4; Binding of serum SARS-yellow to linear peptides of protein N of SARS-CoV Urbani [1]: 0.4
2 | GRRGPEQTQGNFGDQ |  | 0.4 |  | 0.3 |  | 0.4 | 0.2 | 0.5 | 0.6 | 0.5 | 0.4 | 0.5 | 0.6 | 0.6 | 0.6 | 0.6 | 0.1 | 0.2 | 0.1 | 0.2 | Recognition of the peptide by sera of SARS-CoV infected individuals, and form (linear, looped/cyclic) in which it is recognized [1]: recognized in linear form
3 | GSRGGSQASSRSSSR |  | 0.6 |  | 0.8 |  | 0.7 | 0.5 | 0.9 | 0.7 | 0.7 | 1.2 | 1.6 | 1.1 | 0.7 | 0.7 | 0.7 | 0.3 | 0.6 | 0.1 | 0.2 | Binding of serum 1a to linear peptide (PEPSCAN-ELISA) [1]: 0.3; Binding of serum 1b to linear peptide (PEPSCAN-ELISA) [1]: 0.1; Binding of serum 2 to linear peptide (PEPSCAN-ELISA) [1]: 0.3; Binding of serum 6 to linear peptide (PEPSCAN-ELISA) [1]: 0.4; Binding of serum 37 to linear peptide (PEPSCAN-ELISA) [1]: 0.7; Binding of serum 62 to linear peptide (PEPSCAN-ELISA) [1]: 0.8; Binding of serum London to linear peptide (PEPSCAN-ELISA) [1]: 0.5; Binding of serum SARS-green to linear peptide (PEPSCAN-ELISA) [1]: 0.2; Binding of serum SARS-yellow to linear peptide (PEPSCAN-ELISA) [1]: 0.8
4 | GTDYKHWPQIAQFAP | 0.3 | 0.5 | 0.1 | 0.3 | 0.2 | 0.5 | 0.3 | 0.7 | 0.7 | 0.5 |  | 0.7 |  |  |  |  | 0.2 | 0.5 | 0.1 | 0.2 | Binding of serum 6 to linear peptides of protein N of SARS-CoV Urbani [1]: 0.2; Binding of serum 37 to linear peptides of protein N of SARS-CoV Urbani [1]: 0.7; Binding of serum 62 to linear peptides of protein N of SARS-CoV Urbani [1]: 0.8; Binding of serum London to linear peptides of protein N of SARS-CoV Urbani [1]: 0.6; Binding of serum SARS-green to linear peptides of protein N of SARS-CoV Urbani [1]: 0.6; Binding of serum SARS-yellow to linear peptides of protein N of SARS-CoV Urbani [1]: 0.7; Control Serum Blood-Bank Looped peptides [2]: 0.8; Control serum Blood-bank linear peptides [2]: 0.8; Control serum LUMC linear peptides [2]: 0.6; Control serum LUMC looped peptides [2]: 0.7

Source: US20070128217A1 (priority 2003, published 2007)
